The text below walks through data of patent publication US20110143999A1, “FOWLICIDINS AND METHODS OF ITS USE” (priority 2005, published 2011).

pEC50: −log10 of the molar value. ≈ marks a conversion by molar mass, not a printed value. Where two headings read alike, the source gives them in different places. Residues, ends and D or L forms follow the SMILES beside them.

The subject of data set [1] is S. aureus ATCC 25923.
Data set [2] deals with S. typhimurium ATCC 14028.
Data set [3] deals with E. coli ATCC 25922.
In data set [4] the test system is L. monocytogenes ATCC 19115. Kind of data set: Modified broth microdilution assay (1% MHB). Conditions: Table V, Example 2, listed as fowlicidin-1-K^7L^12K^14L^16K^18. In general terms: Broth dilution looks for growth in wells or tubes with falling amounts of substance.
Another data set has as its system LPS from E. coli O111:B4. Kind of data set: LPS binding assay (chromogenic Limulus amebocyte lysate). The note with it: Table V; 50% inhibition of LPS-mediated procoagulant activation.
Data set [5] relates to three Gram-negative and four Gram-positive bacteria. Conditions: Example 3; 20% TSB, 25 mM NaHCO3, 1 mM NaH2PO4, with or without 100 mM NaCl.
The subject of data set [6] is S. aureus (MRSA) ATCC BAA-39.
Data set [7] has as its system E. coli O157:H7 ATCC 700728. The note with it: 1% MHB.
Data set [8] relates to K. pneumoniae ATCC 13883.
The subject of data set [9] is S. typhimurium DT104 ATCC 700408.
The test system of data set [10] is MDCK cells. Kind of data set: Cytotoxicity assay (alamarBlue). For orientation: The colour change of resazurin is a common sign of viable cells or microbes.
Data set [11] concerns S. typhimurium ATCC 14028. This is another data set of the same source.
Data set [12] has as its system Gram-negative and Gram-positive bacteria. Conditions: Example 4, summary of Table VII.
Data set [13] relates to S. enteritidis ATCC 13076.
Data set [14] deals with L. monocytogenes ATCC 19115.
Data set [15] relates to S. typhimurium DT104 ATCC 700408. The source holds these as a separate data set.
For data set [16], the system named is E. coli ATCC 25922. The source holds these as a separate data set.
For data set [17], the system named is S. aureus ATCC 25923. This is another data set of the same source.
Data set [18] concerns K. pneumoniae ATCC 13883. The source holds these as a separate data set.
In data set [19] the test system is S. aureus (MRSA) ATCC BAA-39. The source holds these as a separate data set.
Data set [20] concerns S. aureus (MRSA) ATCC 43300.
Data set [21] has as its system MDCK cells.

Compound `CC[C@H](C)[C@H](NC(=O)[C@H](C)NC(=O)[C@H](CCCNC(=N)N)NC(=O)[C@H](Cc1ccc(O)cc1)NC(=O)[C@H](CC(C)C)NC(=O)[C@H](CCCCN)NC(=O)[C@H](Cc1ccc(O)cc1)NC(=O)[C@H](CC(C)C)NC(=O)[C@H](C)NC(=O)[C@H](CCCCN)NC(=O)[C@@H](NC(=O)[C@H](CC(C)C)NC(=O)[C@H](CCCNC(=N)N)NC(=O)[C@@H](NC(=O)[C@@H](NC(=O)[C@H](CC(C)C)NC(=O)[C@H](CCCCN)NC(=O)[C@H](Cc1c[nH]c2ccccc12)NC(=O)[C@@H](NC(=O)[C@H](CCCNC(=N)N)NC(=O)[C@H](CCCCN)NC(=O)[C@@H](NC(=O)[C@@H](N)CCCNC(=N)N)C(C)C)C(C)C)C(C)C)[C@@H](C)CC)C(C)C)C(=O)N[C@@H](CCCCN)C(=O)N[C@@H](CCCCN)C(=O)N[C@@H](CCCCN)C(=O)O` [Fowl-1-KLKLK] (H-RVKRVWKLVIRLVKALYKLYRAIKKK-OH; N-terminus assumed) showed a pEC50 of 4.96. For the same compound, the “Antibacterial Activity (MIC, μM) S. aureus” value with S. aureus ATCC 25923 [1] is 1.9 µM. In addition, in data set [2], the “Antibacterial Activity (MIC, μM) Salmonella” value came out at 1.9 µM. In the data set with E. coli ATCC 25922 [3] (Table V, Example 2, 1% MHB, listed as fowlicidin-1-K^7L^12K^14L^16K^18), the “Antibacterial Activity (MIC, μM) E. coli” value was > 7.6 µM. In data set [4], the “Antibacterial Activity (MIC, μM) Listeria” value is > 7.6 µM. The compound further had a pEC50 with LPS from E. coli O111:B4 of 5.22.

Consider `CC[C@H](C)[C@H](NC(=O)[C@@H](NC(=O)[C@@H](NC(=O)[C@@H](NC(=O)[C@@H](NC(=O)[C@H](CCCCN)NC(=O)[C@@H]1CCCN1)C(C)C)[C@@H](C)O)[C@@H](C)CC)[C@@H](C)O)C(=O)N[C@@H](CCC(N)=O)C(=O)NCC(=O)N[C@@H](CO)C(=O)N[C@@H](C)C(=O)N[C@@H](CCCNC(=N)N)C(=O)N[C@@H](Cc1ccccc1)C(=O)O` [Fowl-2(19-31)] (H-PKVTITIQGSARF-OH; N-terminus and C-terminus assumed), for which, in data set [5], the “MIC (range over bacteria tested)” value was > 32 µM.

As a reminder, the MIC is the least concentration at which growth counts as inhibited. A high value points to weaker potency. For `CC[C@H](C)[C@H](NC(=O)[C@H](CCCCN)NC(=O)[C@H](CCCNC(=N)N)NC(=O)[C@H](CC(C)C)NC(=O)[C@H](Cc1ccccc1)NC(=O)[C@H](CCCNC(=N)N)NC(=O)CNC(=O)[C@H](Cc1ccccc1)NC(=O)[C@H](CCCNC(=N)N)NC(=O)CNC(=O)[C@H](CCCNC(=N)N)NC(=O)[C@H](CCC(N)=O)NC(=O)[C@@H](NC(=O)[C@@H](N)CC(C)C)C(C)C)C(=O)N[C@@H](CCCNC(=N)N)C(=O)N[C@@H](CCCNC(=N)N)C(=O)N[C@@H](Cc1ccccc1)C(=O)N[C@@H](CCCNC(=N)N)C(=O)N1CCC[C@H]1C(=O)N[C@@H](CCCCN)C(=O)N[C@H](C(=O)N[C@H](C(=O)N[C@H](C(=O)N[C@H](C(=O)N[C@H](C(=O)N[C@@H](CCC(N)=O)C(=O)NCC(=O)N[C@@H](CO)C(=O)N[C@@H](C)C(=O)N[C@@H](CCCNC(=N)N)C(=O)N[C@@H](Cc1ccccc1)C(=O)O)[C@@H](C)CC)[C@@H](C)O)[C@@H](C)CC)[C@@H](C)O)C(C)C` [Fowlicidin-2] (H-LVQRGRFGRFLRKIRRFRPKVTITIQGSARF-OH; N-terminus and C-terminus assumed), the MIC against S. aureus ATCC 25923 [1] stood at 0.66 µM (≈ 2.48 µg/mL); with E. coli ATCC 25922 [3], 2.66 µM (≈ 10 µg/mL); in [6], 0.66 µM (≈ 2.48 µg/mL); in data set [7] (NaCl 0 mM), 0.66 µM (≈ 2.48 µg/mL); in [7] (NaCl 100 mM) it was 1.33 µM (≈ 5 µg/mL); with K. pneumoniae ATCC 13883 [8] it was 0.66 µM (≈ 2.48 µg/mL). Also, the MIC in data set [9] was found to be 0.66 µM (≈ 2.48 µg/mL). Moreover, the “MIC (range over bacteria tested)” value in [5] was 0.5 to 2 µM.

Regarding `CC[C@H](C)[C@H](NC(=O)CNC(=O)[C@H](C)NC(=O)[C@H](C)NC(=O)[C@@H](NC(=O)[C@@H](NC(=O)[C@H](CC(N)=O)NC(=O)[C@@H](NC(=O)[C@H](C)NC(=O)[C@@H](NC(=O)[C@@H]1CCCN1C(=O)[C@@H](NC(=O)[C@H](CC(C)C)NC(=O)[C@@H]1CCCN1C(=O)[C@H](Cc1c[nH]c2ccccc12)NC(=O)[C@H](Cc1ccccc1)NC(=O)[C@H](CCCNC(=N)N)NC(=O)[C@@H](N)CCCCN)C(C)C)C(C)C)[C@@H](C)CC)[C@@H](C)O)C(C)C)C(=O)N[C@@H](CC(N)=O)C(=O)N[C@@H](CC(C)C)C(=O)N[C@@H](Cc1ccc(O)cc1)C(=O)N[C@@H](CCCCN)C(=O)N[C@@H](C)C(=O)N[C@H](C(=O)N[C@@H](CCCNC(=N)N)C(=O)N[C@@H](CCCNC(=N)N)C(=O)N[C@@H](CCCCN)C(=O)O)[C@@H](C)CC` [Fowlicidin-3] (H-KRFWPLVPVAINTVAAGINLYKAIRRK-OH; N-terminus and C-terminus assumed), in the data set with MDCK cells [10] (in the presence of serum, against all bacterial strains tested), the “cytotoxicity (EC50) fold higher than MICs” value is given as 10-to 40 fold. For the same compound, in the data set on MDCK cells [10] (read-out: 50% effective concentration (EC50), MDCK cell killing, Example 4, without serum, FIG. 20A), the pEC50 was 4.92. Moreover, the MIC in data set [11] was found to be 2 µM (≈ 6.19 µg/mL); in [13], 2 µM (≈ 6.19 µg/mL); in data set [14], 2 µM (≈ 6.19 µg/mL); in [15] it was 2 µM (≈ 6.19 µg/mL); against E. coli ATCC 25922 [16], 2 µM (≈ 6.19 µg/mL); with S. aureus ATCC 25923 [17] it was 1 µM (≈ 3.1 µg/mL). Moreover, the MIC (against K. pneumoniae ATCC 13883 [18]; in data set [19]; in data set [20]) was 1 µM (≈ 3.1 µg/mL) in each case. For the same compound, the “MICs (range over bacteria tested)” value in data set [12] fell in the range of 1 to 2 µM. Moreover, in the data set with MDCK cells [21], the “fold reduction in toxicity in the presence of 10% FBS” value is 2 fold.
